Experimental data: patent US20200392181A1, “PEPTIDE COMPOSITIONS AND RELATED METHODS” (Allegro Pharmaceuticals, LLC, priority 2017, published 2020)

System: ischemia-induced retinal neovascularization
Experiment: Mouse model of retinopathy of prematurity (ROP), ischemia-induced retinal neovascularization
Type: in vivo, C57BI/6 mice
Conditions: addition of three parts taurine to one part of the peptide
Method: Each test compound was prepared in sterile water for injection, containing 0.08 mg/100 μL of sodium chloride and 0.005 mg/100 μL of trisodium citrate, the concentration of the peptide was at a concentration of 2.0 mg/100 μL and pH=2.7 and dispensed by sterile filtration into sterile vials. The Taurine test compound was obtained from Sigma Aldrich company, which was >99% pure, and prepared the same way as mentioned previously, having a concentration of 3.0 mg/100 μL. […]
To screen the test compounds for activity against ischemia-induced retinal neovascularization, the well-established model of retinopathy of prematurity (ROP) in mice was used. Litters of C57BI/6 mice were placed in 75% oxygen at postnatal day (P) 7, returned to room air at day (P) 12. The Pups were randomly assigned to treatment groups of 4 to 10 animals per group. The pups were treated as follows: Treatment eyes were treated by intravitreal injection of 1.0 microliters of solution containing 20 micrograms of Test Compound.
On post-natal day 17, 5 days after intravitreal injection, the animals were sacrificed, the retinas were flat mounted and the area of neovascularization in each retina was determined by Fluorescein-dextran image analysis. […]

Substance: Glycinyl-Arginyl-Glycinyl-Cysteic(Acid)-Threonyl-Proline [ALG-1001]
- neovascularization suppressing activity on addition of taurine: improves the neovascularization suppressing activity
